# Experimental data published in the supplement of paper PMC10307832.
# Tests used:
# Test in all cases: relative viability (nuclei count vs DMSO), 5 days (fraction); higher = more cells survive
# Quizartinib + Trametinib = compound: CC(C)(C)c1cc(NC(=O)Nc2ccc(-c3cn4c(n3)sc3cc(OCCN5CCOCC5)ccc34)cc2)no1 [Quizartinib] + CC(=O)Nc1cccc(-n2c(=O)n(C3CC3)c(=O)c3c(Nc4ccc(I)cc4F)n(C)c(=O)c(C)c32)c1 [Trametinib] (partner 0.02 µM)
# Summary of the method: (§1)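 Values are medians from duplicate plates. Each reflects relative viability, defined as the nuclei count of treated wells over that of vehicle wells. Lung cancer cell lines in 1536-well plates were pin-tool dosed one day after seeding with one drug alone or with a fixed anchor-drug dose plus five library-drug doses (not always all listed) in √10 steps, then fixed, stained and imaged at 4× after 5 days.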
# Quizartinib + Decitabine = compound: CC(C)(C)c1cc(NC(=O)Nc2ccc(-c3cn4c(n3)sc3cc(OCCN5CCOCC5)ccc34)cc2)no1 [Quizartinib] + Nc1ncn([C@H]2C[C@H](O)[C@@H](CO)O2)c(=O)n1 [Decitabine] (partner 2 µM)
# Summary of the method: as §1
# Quizartinib + Vorinostat = compound: CC(C)(C)c1cc(NC(=O)Nc2ccc(-c3cn4c(n3)sc3cc(OCCN5CCOCC5)ccc34)cc2)no1 [Quizartinib] + O=C(CCCCCCC(=O)Nc1ccccc1)NO [Vorinostat] (partner 1 µM)
# Summary of the method: as §1
# Quizartinib + Olaparib = compound: CC(C)(C)c1cc(NC(=O)Nc2ccc(-c3cn4c(n3)sc3cc(OCCN5CCOCC5)ccc34)cc2)no1 [Quizartinib] + O=C(c1cc(Cc2n[nH]c(=O)c3ccccc23)ccc1F)N1CCN(C(=O)C2CC2)CC1 [Olaparib] (partner 8 µM)
# Summary of the method: as §1
# YM155 + OSI-027 = compound: COCC[n+]1c2c(n(Cc3cnccn3)c1C)C(=O)c1ccccc1C2=O [YM155] + COc1cccc2cc(-c3nc([C@H]4CC[C@H](C(=O)O)CC4)n4ncnc(N)c34)[nH]c12 [OSI-027] (partner 0.5 µM)
# Summary of the method: as §1
# YM155 + AZD7762 = compound: COCC[n+]1c2c(n(Cc3cnccn3)c1C)C(=O)c1ccccc1C2=O [YM155] + NC(=O)Nc1cc(-c2cccc(F)c2)sc1C(=O)N[C@H]1CCCNC1 [AZD7762] (partner 0.2 µM)
# Summary of the method: as §1
cell line,measurement,setting,value
NCI-H1648,relative viability,Quizartinib + Trametinib; first compound 0.003162 µM,0.401
same,relative viability,Quizartinib + Trametinib; first compound 0.03162 µM,0.581
same,relative viability,Quizartinib + Trametinib; first compound 0.1 µM,0.486
same,relative viability,Quizartinib + Decitabine; first compound 0.003162 µM,0.461
same,relative viability,Quizartinib + Decitabine; first compound 0.03162 µM,0.548
same,relative viability,Quizartinib + Decitabine; first compound 0.1 µM,0.745
same,relative viability,Quizartinib + Vorinostat; first compound 0.003162 µM,0.315
same,relative viability,Quizartinib + Vorinostat; first compound 0.03162 µM,0.32
same,relative viability,Quizartinib + Vorinostat; first compound 0.1 µM,0.927
same,relative viability,Quizartinib + Olaparib; first compound 0.003162 µM,0.985
same,relative viability,Quizartinib + Olaparib; first compound 0.03162 µM,0.604
same,relative viability,Quizartinib + Olaparib; first compound 0.1 µM,0.909
same,relative viability,YM155 + OSI-027; first compound 0.002 µM,0.283
same,relative viability,YM155 + OSI-027; first compound 0.006325 µM,0.271
same,relative viability,YM155 + OSI-027; first compound 0.02 µM,0.259
same,relative viability,YM155 + OSI-027; first compound 0.06325 µM,0.231
same,relative viability,YM155 + AZD7762; first compound 0.006325 µM,0.689
same,relative viability,YM155 + AZD7762; first compound 0.02 µM,0.557
same,relative viability,YM155 + AZD7762; first compound 0.06325 µM,0.634
